# According to ChEMBL document CHEMBL4229334, “Fluoroquinolone derivatives and their anti-tubercular activities” (Eur J Med Chem, 2018):
# Key:
# [1] = tested on: Mycobacterium intracellulare; assay: Antitubercular activity against Mycobacterium intracellulare after 14 days by two fold agar dilution method; type: functional; settings: 336 h
# [2] = tested on: Mycobacterium intracellulare; assay: Potency index, ratio of MIC for GTFX to MIC for test compound for antitubercular activity against Mycobacterium intracellulare after 14 days by two fold agar dilution method; type: functional
# Mycobacterium avium [3] = assay: Antitubercular activity against Mycobacterium avium after 14 days by two fold agar dilution method; type: functional; settings: 336 h
# [4] = tested on: Mycobacterium tuberculosis; assay: Potency index, ratio of MIC for rifampicin to MIC for test compound for antitubercular activity against rifampicin-sensitive Mycobacterium tuberculosis after 21 days by two fold agar dilution method; type: functional
# Mycobacterium avium [5] = assay: Potency index, ratio of MIC for rifampicin to MIC for test compound for antitubercular activity against Mycobacterium avium after 14 days by two fold agar dilution method; type: functional
# Mycobacterium avium [6] = assay: Potency index, ratio of MIC for GTFX to MIC for test compound for antitubercular activity against Mycobacterium avium after 14 days by two fold agar dilution method; type: functional
# [7] = tested on: Mycobacterium tuberculosis; assay: Potency index, ratio of MIC for LVFX to MIC for test compound for antitubercular activity against rifampicin-sensitive Mycobacterium tuberculosis after 21 days by two fold agar dilution method; type: functional
# [8] = tested on: Mycobacterium tuberculosis; assay: Potency index, ratio of MIC for isoniazid to MIC for test compound for antitubercular activity against rifampicin-sensitive Mycobacterium tuberculosis after 21 days by two fold agar dilution method; type: functional
# Mycobacterium avium [9] = assay: Potency index, ratio of MIC for isoniazid to MIC for test compound for antitubercular activity against Mycobacterium avium after 14 days by two fold agar dilution method; type: functional
# [10] = tested on: Mycobacterium intracellulare; assay: Potency index, ratio of MIC for isoniazid to MIC for test compound for antitubercular activity against Mycobacterium intracellulare after 14 days by two fold agar dilution method; type: functional
# [11] = tested on: Mycobacterium tuberculosis; assay: Antitubercular activity against rifampicin-sensitive Mycobacterium tuberculosis after 21 days by two fold agar dilution method; type: functional; settings: 504 h
# [12] = tested on: Mycobacterium intracellulare; assay: Potency index, ratio of MIC for LVFX to MIC for test compound for antitubercular activity against Mycobacterium intracellulare after 14 days by two fold agar dilution method; type: functional
# Mycobacterium avium [13] = assay: Potency index, ratio of MIC for LVFX to MIC for test compound for antitubercular activity against Mycobacterium avium after 14 days by two fold agar dilution method; type: functional
# [14] = tested on: Mycobacterium intracellulare; assay: Antibacterial activity against Mycobacterium intracellulare after 7 days by two fold dilution assay; type: functional; settings: 168 h
# Mycobacteroides chelonae = assay: Antibacterial activity against Mycobacterium chelonae after 7 days by two fold dilution assay; type: functional; settings: 168 h
# [15] = tested on: Mycolicibacterium smegmatis; assay: Antibacterial activity against Mycobacterium smegmatis after 7 days by two fold dilution assay; type: functional; settings: 168 h
# Mycobacterium xenopi = assay: Antibacterial activity against Mycobacterium xenopi after 7 days by two fold dilution assay; type: functional; settings: 168 h
# Mycobacterium avium [16] = assay: Antitubercular activity against Mycobacterium avium; type: functional
# [17] = tested on: Mycolicibacterium fortuitum; assay: Antitubercular activity against Mycobacterium fortuitum ATCC 6841 by NCCLS method; type: functional
# [18] = tested on: Mycolicibacterium fortuitum; assay: Potency index, ratio of MIC for SPFX to MIC for test compound for antitubercular activity against Mycobacterium fortuitum ATCC 6841 by NCCLS method; type: functional
# [19] = tested on: Mycolicibacterium smegmatis; assay: Potency index, ratio of MIC for SPFX to MIC for test compound for antibacterial activity against Mycobacterium smegmatis by NCCLS method; type: functional
# [20] = tested on: Mycolicibacterium smegmatis; assay: Antibacterial activity against Mycobacterium smegmatis by NCCLS method; type: functional
# [21] = tested on: Mycolicibacterium smegmatis; assay: Potency index, ratio of MIC for 8-OMe CPFX to MIC for test compound for antitubercular activity against Mycobacterium smegmatis CMCC 93202 after 72 hrs; type: functional
# [22] = tested on: Mycolicibacterium smegmatis; assay: Potency index, ratio of MIC for CPFX to MIC for test compound for antitubercular activity against Mycobacterium smegmatis CMCC 93202 after 72 hrs; type: functional
# [23] = tested on: Mycolicibacterium smegmatis; assay: Potency index, ratio of MIC for MXFX to MIC for test compound for antitubercular activity against Mycobacterium smegmatis CMCC 93202 after 72 hrs; type: functional
# [24] = tested on: Mycolicibacterium smegmatis; assay: Antitubercular activity against Mycobacterium smegmatis CMCC 93202 after 72 hrs; type: functional; settings: CMCC 93202, 72 h
# [25] = tested on: Mycolicibacterium smegmatis; assay: Potency index, ratio of MIC for rifampicin to MIC for test compound for antitubercular activity against Mycobacterium smegmatis CMCC 93202 after 72 hrs; type: functional
# [26] = tested on: Mycolicibacterium smegmatis; assay: Antitubercular activity against Mycobacterium smegmatis after 30 to 32 hrs; type: functional
# [27] = tested on: Mycobacterium tuberculosis; assay: Antitubercular activity against non-replicating Mycobacterium tuberculosis H37Rv after 10 days by low oxygen recovery assay; type: functional; settings: 240 h
# [28] = tested on: Mycobacterium tuberculosis; assay: Potency index, ratio of MIC for MXFX to MIC for test compound for antitubercular activity against non-replicating Mycobacterium tuberculosis H37Rv after 10 days by low oxygen recovery assay; type: functional
# [29] = tested on: Mycobacterium tuberculosis; assay: Antitubercular activity against replicating Mycobacterium tuberculosis H37Rv by Alamar Blue assay; type: functional
# [30] = tested on: Mycobacterium tuberculosis; assay: Antitubercular activity against Mycobacterium tuberculosis H37Rv ATCC 27294 by Alamar Blue assay; type: functional
# [31] = Cytotoxicity against African green monkey Vero cells after 72 hrs by MTT assay; type: cell-based; settings: chlorocebus sabaeus
# [32] = tested on: Mycobacterium tuberculosis; assay: Antitubercular activity against Mycobacterium tuberculosis H37Rv ATCC 27294 assessed as growth inhibition at 6.25 ug/ml by broth dilution assay relative to control; type: functional; settings: read-out: GI
# [33] = tested on: Mycobacterium tuberculosis; assay: Antitubercular activity against Mycobacterium tuberculosis H37Rv by serial dilution assay; type: functional
# [34] = tested on: Mycobacterium tuberculosis; assay: Potency index, ratio of MIC for perfloxacin to MIC for test compound for antitubercular activity against Mycobacterium tuberculosis H37Rv by serial dilution assay; type: functional
# Staphylococcus aureus = assay: Antibacterial activity against Staphylococcus aureus after 18 hrs by broth microdilution assay; type: functional
# [35] = Cytotoxicity against African green monkey Vero cells after 96 hrs by MTT assay; type: cell-based; settings: chlorocebus sabaeus
# [36] = Selectivity index, ratio of IC50 for African green monkey Vero cells to MIC for Mycobacterium tuberculosis H37Rv; type: toxicity
# [37] = tested on: Mycobacterium tuberculosis; assay: Antitubercular activity against Mycobacterium tuberculosis H37Rv after 21 days by broth dilution assay; type: functional; settings: 504 h
# Corynebacterium [38] = assay: Antibacterial activity against Corynebacterium ATCC-25365 after 18 hrs by broth microdilution assay; type: functional; settings: ATCC-25365, 18 h
# Corynebacterium [39] = assay: Antibacterial activity against Corynebacterium ATCC-29355 after 18 hrs by broth microdilution assay; type: functional; settings: ATCC-29355, 18 h
# [40] = tested on: Mycobacterium tuberculosis; assay: Antibacterial activity against Mycobacterium tuberculosis H37Rv after 7 days by two fold dilution assay; type: functional; settings: 168 h
structure (smiles),measurement,setting,value
C[C@H]1COc2c(N3C[C@H]4CCCN[C@H]4C3)c(F)cc3c(=O)c(C(=O)O)cn1c23,MIC,[1],0.2 to 1.7 µg/mL
same,Ratio,[2],1.9 - 8.2
same,MIC,Mycobacterium avium [3],0.2 to 1.7 µg/mL
same,Ratio,[4],>=6.5 - 165
same,Ratio,Mycobacterium avium [5],3.2 - 64.2
same,Ratio,Mycobacterium avium [6],3.2 - 64.2
same,Ratio,[7],>=6.5 - 165
same,Ratio,[8],>=6.5 - 165
same,Ratio,Mycobacterium avium [9],3.2 - 64.2
same,Ratio,[10],1.9 - 8.2
same,MIC,[11],0.2 to 1.7 µg/mL
same,Ratio,[12],1.9 - 8.2
same,Ratio,Mycobacterium avium [13],3.2 - 64.2
CCn1cc(C(=O)N/N=C2\C(=O)N(Cc3ccccc3)c3ccccc32)c(=O)c2ccc(C)nc21,MIC,[14],0.625 µg/mL
same,MIC,Mycobacteroides chelonae,0.625 µg/mL
same,MIC,[15],0.625 µg/mL
same,MIC,Mycobacterium xenopi,0.625 µg/mL
O=C(O)c1cn(-c2ccc(O)cc2)c2cc(N3CCNCC3)c(F)cc2c1=O,MIC,Mycobacterium avium [16],6.25 µg/mL
CC1(CN)CCN(c2cc3c(cc2F)c(=O)c(C(=O)O)cn3C2CC2)C1 (stereo not drawn),MIC,[17],≤ 0.03 µg/mL
same,Ratio,[18],>=2
same,Ratio,[19],>=2
same,MIC,[20],0.06 µg/mL
COc1ccc2cc(C(=O)CN3CCN(c4c(F)cc5c(=O)c(C(=O)O)cn(C6CC6)c5c4OC)CC3)c(=O)oc2c1,Ratio,[21],2 - 8
same,Ratio,[22],2 - 8
same,Ratio,[23],2 - 8
same,MIC,[24],0.25 µg/mL
same,Ratio,[25],2 - 8
CCn1cc(C(=O)N/N=C/c2c(Cl)cccc2Cl)c(=O)c2cc(F)c(N3CCN(C)CC3)cc21,MIC,[26],27 µM
Cc1c(N2CCC(=CO)CC2)c(F)cc2c(=O)c(C(=O)O)cn(C3CC3)c12,MIC,[27],2.95 µg/mL
same,Ratio,[28],3.1
same,MIC,[29],0.1 µg/mL
CC1COc2c(N3CCN(S(=O)(=O)c4ccc([N+](=O)[O-])cc4)CC3)c(F)cc3c(=O)c(C(=O)O)cn1c23 (stereo not drawn),MIC,[30],2.23 µg/mL
same,CC50 at 72 h,[31],> 33 µg/mL
same,inhibition of growth at 6.25 µg/mL,[32],99%
CCn1cc(C(=O)O)c(=O)c2cc(F)c(OCCOCCOCCOCCOCCOc3cc4c(cc3F)c(=O)c(C(=O)O)cn4CC)cc21,MIC,[33],0.8 µg/mL
same,Ratio,[34],5
Cn1cc(C(=O)O)c(=O)c2cc(F)c(N3CCN(c4nnc(SCC(=O)c5ccc([N+](=O)[O-])cc5)s4)CC3)cc21,MIC,Staphylococcus aureus,0.5 to 1 µg/mL
same,CC50 at 96 h,[35],> 6.1 µg/mL
same,selectivity ratio,[36],> 12.2
same,MIC,[37],0.5 µg/mL
same,MIC,Corynebacterium [38],0.5 to 1 µg/mL
same,MIC,Corynebacterium [39],0.5 to 1 µg/mL
CCn1cc(C(=O)N/N=C/c2cccc(O)c2)c(=O)c2cc(F)c(N3CCN(C)CC3)cc21,MIC,[26],27.2 µM
O=C(O)c1cn(C2CC2)c2cc(N3CCNCC3)c(F)cc2c1=O [CIPROFLOXACIN],MIC,Staphylococcus aureus,1 to 2 µg/mL
same,MIC,Corynebacterium [38],1 to 2 µg/mL
same,MIC,Corynebacterium [39],1 to 2 µg/mL
NNC(=O)c1ccncc1 [ISONIAZID],MIC,[14],12.5 µg/mL
same,MIC,Mycobacteroides chelonae,12.5 µg/mL
same,MIC,[15],12.5 µg/mL
same,CC50 at 72 h,[31],32 µg/mL
same,MIC,[37],1.5 µg/mL
same,MIC,Mycobacterium xenopi,12.5 µg/mL
same,MIC,[40],0.05 µg/mL
COc1c(N2C[C@@H]3CCCN[C@@H]3C2)c(F)cc2c(=O)c(C(=O)O)cn(C3CC3)c12 [MOXIFLOXACIN],MIC,[27],9.19 µg/mL
same,MIC,[29],0.1 µg/mL
CC1COc2c(N3CCN(C)CC3)c(F)cc3c(=O)c(C(=O)O)cn1c23 (stereo not drawn) [OFLOXACIN],inhibition of growth at 6.25 µg/mL,[32],62 to 96%
CCn1cc(C(=O)O)c(=O)c2cc(F)c(N3CCN(C)CC3)cc21 [PEFLOXACIN],MIC,[33],4 µg/mL
CO[C@H]1/C=C/O[C@@]2(C)Oc3c(C)c(O)c4c(O)c(c(/C=N/N5CCN(C)CC5)c(O)c4c3C2=O)NC(=O)/C(C)=C\C=C\[C@H](C)[C@H](O)[C@@H](C)[C@@H](O)[C@@H](C)[C@H](OC(C)=O)[C@@H]1C [RIFAMPIN],CC50 at 72 h,[31],7.8 µg/mL
same,MIC,[37],1 µg/mL
same,MIC,[40],0.39 µg/mL
O=C(O)c1cn(-c2ccc(F)cc2)c2cc(N3CCNCC3)c(F)cc2c1=O [SARAFLOXACIN],MIC,Mycobacterium avium [16],6.25 µg/mL
C[C@@H]1CN(c2c(F)c(N)c3c(=O)c(C(=O)O)cn(C4CC4)c3c2F)C[C@H](C)N1 [SPARFLOXACIN],MIC,[17],0.06 µg/mL
same,MIC,[20],0.13 µg/mL
